Assay results reported in patent US20230302036A1, “COMPOSITIONS FOR TREATMENT OF SPINAL MUSCULAR ATROPHY” (priority 2020, published 2023).
Oligonucleotides are written 5' to 3', each unit as a sugar letter and its base; * is a phosphorothioate linkage, no mark a phosphodiester; rarer units and linkages stand in square brackets, end groups in braces. Plain capitals give the bases only. e = 2'-O-(2-methoxyethyl) (MOE); [5mC] = 5-methylcytosine

Columns and labels:
SMN2 pre-mRNA = experiment: Transcriptional activation by RT-qPCR of SMN2 pre-mRNA in HEK293T cells; type: cell-based, human; settings: HDAC inhibitor alone
Procedure: (FIG. 5D and FIG. 5E) Transcriptional activation was assessed by RT-qPCR. (FIG. 5F) HEK293T cells with 3 nM ASO1 and 10 mM VPA for 24 hr. Bars indicate mean transcriptional activation ± SD ratios between precursors of SMN2 and GAPDH as the control gene. Statistical significance was analyzed by two-tailed Student’s t-tests. P < 0.05 was considered statistically significant.
HEK293T, HeLa, and SMA type I homozygous and carrier fibroblasts 3813 and 3814 (Coriell Cell Repositories, Camden, New Jersey, United States) were grown in Dulbecco’s modified Eagle’s medium (DMEM) containing 4.5 g of glucose and 10% fetal bovine serum (Gibco) at 37° C. Cells were plated at a density of 2×10^5 cells per well in 12-well plates 24 hr before transfection. siRNA (25 nM), plasmid (500 ng), or ASO (25 nM) transfections were performed 24 hr after cells were plated, using 3 µl of Lipofectamine 2000 (Thermo Fisher Scientific) per well in 12-well plates. 24-48 h later, cells were treated with Trichostatin A (Sigma, T8552), Valproic Acid (Sigma, P4543), 5-Azacytidine (Sigma, A2385) or vehicle for the indicated time, and harvested for downstream procedures.

[1] = system: H3K9me2 along the human SMN2 transgene; experiment: ChIP-qPCR of H3K9me2 along the human SMN2 transgene in brain and liver of P7 SMA mice; type: in vivo, mouse; settings: P7 SMA mice injected with ASO1
Procedure: (§1) H3K9me2 (left) and total RNAPII (right) distribution along the human SMN2 transgene, assessed by ChIP-qPCR, in brain (FIG. 12A) and liver (FIG. 12B) of P7 SMA mice injected with ASO1. Vertical arrows indicate the approximate location of the target site for ASO1 on the pre-mRNA. Three independent immunoprecipitation replicates were conducted per experiment. Data are represented as mean ± S.D. (n = 3, *p < 0.05, two-tailed Student’s t test).
(§2) Approximately 2×10^6 HEK293T cells per sample were treated for 10 min in 1% (v/v) formaldehyde at room temperature to crosslink protein-DNA complexes. Crosslinking was stopped with glycine at a final concentration of 125 mM. Cells were washed twice with cold PBS and swelled on ice for 10 min in 25 mM HEPES pH 8, 1.5 mM MgCl2, 10 mM KCl, 0.1% NP-40, 1 mM DTT and 1× protease inhibitor cocktail set III (Calbiochem). Following Dounce homogenization, the nuclei were collected and resuspended in 1 ml sonication buffer (50 mM HEPES pH 8, 140 mM NaCl, 1 mM EDTA, 0.1% sodium deoxycholate, 0.1% SDS and 1× protease inhibitor cocktail). DNA was sonicated in an ultrasonic bath (Bioruptor Diagenode) to an average length of 200-500 bp. After addition of 1% (v/v) Triton X-100, samples were centrifuged at 15,000 ×g. […] Immunoprecipitated DNA (1.5 µl) and serial dilutions of the 10% input DNA (1:4, 1:20, 1: 100, and 1:500) were analyzed by SYBR-Green real-time qPCR.

[2] = system: total RNAPII along the human SMN2 transgene; experiment: ChIP-qPCR of total RNAPII along the human SMN2 transgene in brain and liver of P7 SMA mice; type: in vivo, mouse; settings: P7 SMA mice injected with ASO1
Procedure: as §1, §2

Compound	levels of SMN2 pre-mRNA (promoter-proximal amplicon) (SMN2 pre-mRNA)	H3K9 dimethylation on the SMN2 transgene in liver and brain [1]	RNAPII accumulation on the SMN2 transgene in liver and brain [2]
CCCC(CCC)C(=O)O [VPA, valproic acid]	increased the levels of SMN2 pre-mRNA	–	–
ASO1: 5′-ATTCACTTTCATAATGCTGG-3′ 2′-O-methoxyethyl-modified oligonucleotide with phosphorothioate backbone and all 5-methyl cytosines; nusinersen variant with 2-nucleotide extension (antisense eA*eT*eT*e[5mC]*eA*e[5mC]*eT*eT*eT*e[5mC]*eA*eT*eA*eA*eT*eG*e[5mC]*eT*eG*eG)	–	higher H3K9 dimethylation	RNAPII accumulation
